Measurements published in publication PMC10191356, “Target-agnostic drug prediction integrated with medical record analysis uncovers differential associations of statins with increased survival in COVID-19 patients” (PLOS Computational Biology, 2023).

Key:
SARS-CoV-2 (WA-1 strain) = assay: SARS-CoV-2 WT infection of Vero6 cells (CellTiter-Glo); format: cell-based; details: MOI 0.01, 3 days, mean of two independent experiments; for IC50: Severe acute respiratory syndrome coronavirus 2, 72 h, relative IC50, WT virus; for Max Inhibition (%): WT virus
COVID-19 patients = assay: Retrospective electronic health record analysis of mortality (Cerner Real World Data COVID-19), propensity score matched; format: in vivo, human; details: for Mortality, N (%): cohort before propensity score matching, moderate-intensity statin dose; for Mortality rate, treated patients / No. died/No. treated, treated patients: statin at moderate dose, COVID-19 patients; for reduction in the RR: treated vs matched untreated controls
Protocol: Data from the Cerner Real World Data COVID-19 deidentified EHR database containing records of 490,373 patients with a diagnosis of COVID-19 or COVID-19 exposure across 87 health care centers were analyzed. The following statins were included: atorvastatin, fluvastatin, lovastatin, pitavastatin, pravastatin, rosuvastatin, and simvastatin. Primary outcome was death after the onset of COVID-19. Inclusion criteria, considered comorbidities, and statistical analysis are detailed in the Methods in S1 Text.
Encounters include laboratory and pharmacy information (e.g., medication orders, dispensing), which are date and time stamped. Only patients with COVID-19 diagnosis confirmed by a laboratory test for SARS-CoV-2 (nucleic acid amplification tests and immunoassays) and/or by International Statistical Classification of Diseases and Related Health Problems, Tenth Revision (ICD-10) code U07.1 (for COVID-19 confirmed by laboratory testing),^1 with known demographic characteristics (age, sex, and race and ethnicity), and who were 18 years or older from January to September 2020 were included in our study (n = 90,834). Patients with COVID-19, with a statin medication dose consistent with moderate-intensity therapy,^2 and with a medication order status of active or completed and without a designation of as needed (ie, medication taken only when needed) at least once within a period of 10 days before and 7 days after their first recorded COVID-19 diagnosis were compared with patients with COVID-19 and no statin orders.
Considered comorbidities, identified by using International Classification of Diseases, Ninth Revision, Clinical Modification (ICD-9-CM), and International Statistical Classification of Diseases, Tenth Revision, Clinical Modification (ICD-10-CM), diagnosis codes, included hypertension (I10-I16 and 401.X-405.X), diabetes (O24, E11, E10, E13, and 250.X), chronic obstructive pulmonary disease (J44, 491.2, 493.2, and 496.X), obesity (E66.0, E66.1, E66.2, E66.8, E66.9, 278.00, 278.01, 278.03, Z68.3, Z68.4, V85.3, and V85.4), heart conditions (I20.X, I21.X, I22.X, I23.X, I24.X, I25.X, I42.X, I50.X, 410.X, 411.X, 412.X, 413.X, 414.X, 428.X, and 425.X), cerebrovascular disease (I6X.X, G45.X, G46.X, and 43X.X), cancer (C00-C96, 14X.X, 15X.X, 16X.X, 17X.X, 18X.X, 19X.X, and 20X.X), and chronic kidney disease (N18.X and 585.X). Prescription indications, identified by using ICD-9-CM and ICD-10-CM codes, included high cholesterol/hyperlipidemia (E78.0, E78.1, E78.2, E78.3, E78.4, E78.5, 272, 277). Body mass index (calculated as weight in kilograms divided by height in meters squared) values were identified by Logical Observation Identifiers Names and Codes 39156-5 and 89270-3. Body mass index values of at least 30 were used to confirm the diagnosis of obesity by ICD-9-CM or ICD-10-CM code. The mean dose prescribed for statins-treated patients was calculated for each statin. […] For patients receiving pravastatin, the mean (SD) dose was 48.25 (16.21) mg/d.
The R Matchit package, version 3.0.2 (R Program for Statistical Computing) was used to perform propensity score matching with a nearest-neighbor method to match patients treated with a statin with control patients (1:1 ratio), atorvastatin-treated patients with control patients (1:1 ratio), lovastatin-treated patients with control patients (1:10 ratio), pravastatin-treated patients with control patients (1:10 ratio), rosuvastatin-treated patients with control patients (1:10 ratio), and simvastatin-treated patients with control patients (1:5 ratio), with varying ratios for the different statins to have sufficient power for the comparisons and increase precision. […]

[1] = cited from earlier work
SARS-CoV-2 GFP = assay: microbe, parasite or virus in culture; format: cell-based; details: for Max Inhibition (%) / IC50: mean of two independent experiments; for IC50: Severe acute respiratory syndrome coronavirus 2, 48 h, relative IC50
[2] = cited from earlier work; remark: listed apart in the source
Vero E6 (Vero6) cells = details: uninfected Vero6 cells; mean of two independent experiments
[3] = cited from earlier work; remark: listed apart in the source
in vitro = details: African green monkey
SARS-CoV-2 [4] = test system: SARS-CoV-2; parameters: method as in earlier work; details: VeroE6 cells; cited from earlier work
HCoV-OC43 = HCoV-OC43 infection of HUVECs, viral load; format: cell-based, human coronavirus OC43; details: HUVEC cells, 1 or 5 μM
Protocol: (§1) To measure the impact of selected drugs on HCoV-OC43 infection, 96-well plates seeded with human umbilical vein endothelial cells (HUVECs) were infected with HCoV-OC43 and treated with drugs (Methods in S1 Text). Viral load, Hoechst fluorescence, and IP-10 measurements were measured and normalized to vehicle control samples for each assay. Each group was compared to vehicle controls using the Brown-Forsythe and Welch ANOVA tests and corrected for multiple comparisons using a Dunnett T3 test.
(§2) To measure the impact of selected drugs on HCoV-OC43 infection, 96-well plates seeded with Human Umbilical Vein Endothelial Cells (HUVEC) were infected with HCoV-OC43 and treated with drugs. Uninfected and vehicle treated cells (0.1% DMSO) are included as controls. HUVEC plates were pre-dosed with drugs overnight at 34°C at indicated concentrations (100 µl/well). The following day, HCoV-OC43 was added to the wells (100 µl/well) at an MOI of 0.2 and incubated for 3 h at 34°C. […] After five PBS washes, Hoechst fluorescence was read at 355 nm excitation and 450 nm emission using a Synergy H1 Spectrophotometer. Subsequently, viral load was analyzed using the ImmPACT DAB Peroxidase (HRP) Substrate kit (Vector Labs) according to the manufacturer’s instructions, and DAB absorbance was read at 465 nm.

SARS-CoV-2 [5] = assay: Preliminary in vivo study in SARS-CoV-2-infected hamsters
IP-10 = IP-10 production in OC43-infected HUVECs; format: cell-based, human; details: 1 or 5 μM
Protocol: as §1, §2

SARS-CoV-2 [6] = assay: Preliminary in vivo study in SARS-CoV-2-infected mice

CC(C)c1c(C(=O)Nc2ccccc2)c(-c2ccccc2)c(-c2ccc(F)cc2)n1CC[C@@H](O)C[C@@H](O)CC(=O)O [atorvastatin]
IC50 (SARS-CoV-2 (WA-1 strain)): 1.9 µM
Max Inhibition (%) (SARS-CoV-2 (WA-1 strain)): 24.4%
Mortality, N (%) (COVID-19 patients): 431 (16.1) %
Mortality rate, treated patients (COVID-19 patients): 16.1%
No. died/No. treated, treated patients (COVID-19 patients): 431/2676
reduction in the RR (COVID-19 patients): 14%

CC(C)n1c(/C=C/C(O)CC(O)CC(=O)O)c(-c2ccc(F)cc2)c2ccccc21 (centres unmarked) [fluvastatin]
Active metabolites [1]: No
Bioavailability (%) [1]: 19 to 29%
Elimination half-life [1]: 0.5 to 2.3 h
Metabolism [1]: CYP2C9
Max Inhibition (%) (SARS-CoV-2 GFP): 19%
Protein binding (%) [2]: >99%
Max Toxicity (%) (Vero E6 (Vero6) cells): 80.4%
Solubility [3]: Lipophilic
CC50 (in vitro): 10.6 µM

CC[C@H](C)C(=O)O[C@H]1C[C@@H](C)C=C2C=C[C@H](C)[C@H](CC[C@@H]3C[C@@H](O)CC(=O)O3)[C@H]21 [lovastatin]
Active metabolites [1]: Yes
Clearance [1]: Hepatic
Elimination half-life [1]: 2.9 h
Metabolism [1]: CYP3A4
Mortality, N (%) (COVID-19 patients): 15 (21.4) %
Mortality rate, treated patients (COVID-19 patients): 21.4%
No. died/No. treated, treated patients (COVID-19 patients): 15/70
IC50 (SARS-CoV-2 GFP): 7.8 µM
Max Inhibition (%) (SARS-CoV-2 GFP): 55.8%
Protein binding (%) [2]: >95%
Max Toxicity (%) (Vero E6 (Vero6) cells): 74.2%
Solubility [3]: Lipophilic
CC50 (in vitro): 16.9 µM

O=C(O)C[C@H](O)C[C@H](O)/C=C/c1c(C2CC2)nc2ccccc2c1-c1ccc(F)cc1 [pitavastatin]
IC50 (SARS-CoV-2 (WA-1 strain)): 1.6 µM
Max Inhibition (%) (SARS-CoV-2 (WA-1 strain)): 19.1%
Active metabolites [1]: Yes
Bioavailability (%) [1]: 51%
Clearance [1]: Hepatic
Elimination half-life [1]: 12 h
Metabolism [1]: Non-CYP450 Limited CYP2C9/19
Mortality, N (%) (COVID-19 patients): 4 (30.8) %
Protein binding (%) [2]: 99%
Max Toxicity (%) (Vero E6 (Vero6) cells): 83.6%
Solubility [3]: Lipophilic
CC50 (in vitro): 0.3 µM

CC[C@H](C)C(=O)O[C@H]1C[C@H](O)C=C2C=C[C@H](C)[C@H](CC[C@@H](O)C[C@@H](O)CC(=O)O)[C@H]21 [pravastatin]
Active metabolites [1]: No
Bioavailability (%) [1]: 18%
Clearance [1]: Hepatic and renal
Elimination half-life [1]: 1.3 to 2.8 h
Metabolism [1]: Non-CYP450
Mortality, N (%) (COVID-19 patients): 71 (18.5) %
Mortality rate, treated patients (COVID-19 patients): 18.5%
No. died/No. treated, treated patients (COVID-19 patients): 71/383
Relative risk of death (95% CI) (COVID-19 patients; treated vs propensity score matched untreated controls, iteration with the least significant result): 0.78 (0.61–1.00)
Max Inhibition (%) (SARS-CoV-2 GFP): 21.7%
Protein binding (%) [2]: 43 to 55%
Max Toxicity (%) (Vero E6 (Vero6) cells): 4%
Solubility [3]: Hydrophilic

CC(C)c1nc(N(C)S(C)(=O)=O)nc(-c2ccc(F)cc2)c1/C=C/[C@@H](O)C[C@@H](O)CC(=O)O [rosuvastatin]
Active metabolites [1]: No
Clearance [1]: Hepatic and renal
Metabolism [1]: Non-CYP450 Limited CYP2C9/8
Mortality, N (%) (COVID-19 patients): 53 (13.1) %
Mortality rate, treated patients (COVID-19 patients): 13.1%
No. died/No. treated, treated patients (COVID-19 patients): 53/404
reduction in the RR (COVID-19 patients): 41%
Solubility [3]: Hydrophilic
effects on SARS-CoV-2 replication (SARS-CoV-2 [4]): inhibitory effects

CCC(C)(C)C(=O)O[C@H]1C[C@@H](C)C=C2C=C[C@H](C)[C@H](CC[C@@H](O)C[C@@H](O)CC(=O)O)[C@H]21 [simvastatin hydroxy acid]
inhibition of SARS-CoV-2 infection relative to pro-drug form of simvastatin (SARS-CoV-2 GFP): much weaker inhibition

CCC(C)(C)C(=O)O[C@H]1C[C@@H](C)C=C2C=C[C@H](C)[C@H](CC[C@@H]3C[C@@H](O)CC(=O)O3)[C@H]21 [simvastatin]
OC43 infection (viral load) (HCoV-OC43): inhibits
Clearance [1]: Hepatic
Elimination half-life [1]: 2 to 3 h
Mortality, N (%) (COVID-19 patients): 153 (19.5) %
Mortality rate, treated patients (COVID-19 patients): 19.5%
No. died/No. treated, treated patients (COVID-19 patients): 153/784
reduction in the RR (COVID-19 patients): 17%
IC50 (SARS-CoV-2 GFP): 0.8 µM
Max Inhibition (%) (SARS-CoV-2 GFP): 93.7%
Protein binding (%) [2]: 94 to 98%
Max Toxicity (%) (Vero E6 (Vero6) cells): 78.5%
effect on infection and host response (SARS-CoV-2 [5]; SARS-CoV-2-infected hamsters, very preliminary): no effect
plasma levels (SARS-CoV-2 [5]; hamsters, compared with in vitro IC50): greater than the IC50
cytokine (IP-10) production (IP-10): potently reduced
CC50 (in vitro): 6.5 µM
effect on infection and host response (SARS-CoV-2 [6]; SARS-CoV-2-infected mice, very preliminary): no effect
plasma levels (SARS-CoV-2 [6]; mice, compared with in vitro IC50): greater than the IC50
